Values quoted from earlier work as cited in article PMC7527728, “CPSF6-Dependent Targeting of Speckle-Associated Domains Distinguishes Primate from Nonprimate Lentiviral Integration” (mBio, 2020).

Assays:
HIV-1 capsid hexamers = system: HIV-1 capsid hexamers; design: method as in PMID 25518861; details: more efficiently than the NTD
N74D capsid nanotubes = details: in vitro
Source text: (§1) The 5.2% reduction in genic HIV-1 integration targeting in Jurkat CKD cells was noticeably less than the 22.1% reduction in CKO cells (compare Fig. 4A and Fig. 3A). While the reason for this difference is unclear, it seemed possible that the residual level of CPSF6 protein that persisted in CKD cells (Fig. 2D) could be a contributing factor. We accordingly next mapped integration sites of N74D and A77V capsid mutant viruses in Jurkat T cells. N74D and A77V capsid nanotubes bound CPSF6 ∼5% and 30%, respectively, as efficiently as WT capsid complexes in vitro ([43]).

A77V capsid nanotubes = details: in vitro, as efficiently as WT capsid
Source text: as §1

Substance | binding to capsid hexamers relative to NTD (HIV-1 capsid hexamers) | CPSF6 binding relative to WT capsid complexes (N74D capsid nanotubes) [%] | CPSF6 binding relative to WT capsid complexes (A77V capsid nanotubes) [%]
CPSF6 peptide: CPSF6 peptide binding HIV-1 capsid hexamers, ref 45 | approximately 10 -fold |  | 
CPSF6: cleavage and polyadenylation specificity factor 6 |  | ~5 | ~30
